From paper PMC7663597, “Structure–Activity Relationship of Aloperine Derivatives as New Anti–Liver Fibrogenic Agents” (Molecules, 2020) come the findings set out here.

A word on the LD50: it is the dose at which mortality reaches 50%. A higher LD50 goes with lower toxicity. For orientation: CC50 means the concentration that lowers cell viability or growth by half. A word on the inhibition: it is the percentage by which the read-out fell short of the control.

The nature of data set [1]: in vivo. The conditions noted are these: both sexes, Kunming, mouse, po. How it is done: (§1) To evaluate the safety profiles of the key compounds 4i, 4n and 4p, an acute toxicity test was performed in Kunming mice. Compound 4i was given orally in a single-dosing experiment at 100, 300 and 400 mg kg^−1, while 4n at 300, 400, 500 mg kg^−1, and 4p at 200, 400, 500 mg kg^−1. The mice were closely monitored for 7 days.
(§2) Male and Female Kunming mice with weight of 20.0 ±1.0 g were obtained from the Institute of Laboratory Animal Science (Beijing, China). Animals wer e cared according to the institutional guidelines of the Institute of Medicinal Biotechnology, CAMS&PUMC (IMB-20190610D3), and fed with regular rodent chow and housed in an air conditioned room. The mice were randomly divided into different groups with four male mice and four female mice each. Each compound was given orally in a single-dosing experiment, the dose of 4i was 100, 300 and 400 mg kg^−1, the dose of 4n was 300, 400, 500 mg kg^−1, the dose of 4p was 200, 400, 500 mg kg^−1 (ddH2O as control). The mice were closely monitored for 7 days. Body weight as well as survival was monitored.

Data set [2] has as its system Kunming mice. In words: in vivo. The conditions noted are these: both, mouse, po, 7 days. As to the method: as §1, §2
Data set [3] can be described thus: HepG2 cell survival, MTT assay. The format is cell-based. The conditions noted are these: human, HepG2 cells. How it is done: HepG2 cell survival was measured by MTT assay. HepG2 cells, at density of 6x10^3 cells/well in 96-well culture plates, were incubated with the aloperine derivates at various concentrations until the cells at 50% confluence for 24 h. 20 µL of the MTT (5 mg/mL) solution was added to each plate and incubated with 5% CO2, 37 °C for 4 h. Subsequently, withdrawing the culture supernatant containing MTT, 150 µL DMSO was used for dissolving the formazan crystal. The absorbance was measured using a microplate reader at 570 nm.
Background: Formazan colour is commonly taken as a measure of viable cells.

The subject of data set [4] is COL1A1 promotor. In words: COL1A1 promotor luciferase reporter gene assay in TGF-β1-treated LX-2 cells. The class given is cell-based, human. The conditions noted are these: Homo sapiens; for inhibition at 40 µM / inhibition at 80 µM: LX-2, 24 h; for inhibition at 40 µM: 24 h with TGF-β1, read-out: Inhibition Percentage 40 μM (inhibition rate of COL1A1 promotor's activity); for inhibition at 80 µM: 24 h with TGF-β1, read-out: Inhibition Percentage 80 μM (inhibition rate of COL1A1 promotor's activity); for IC50: read-out: IC50 (concentration required to inhibit 50% of COL1A1 promotor's activity). As to the method: A single luciferase reporter gene detection model was applied to evaluate the inhibitory effects of all target compounds on the expression of COL1A1 promotor in human hepatic stellate LX-2 cells at the concentrations of 40 and 80 μM, taking EGCG as the positive control. The LX-2 cell lines were transfected with COL1A1 promotor luciferase plasmid pGL4.17-COL1A1P for 24 h, then simultaneously treated with TGF-β1 and a tested compound for 24 h.
(§3) Cells were maintained on Dulbecco’s Modified Eagle’s medium (DMEM), laid on 96-well plate. DMEM medium was supplemented with 10% fetal bovine serum (FBS) at 37 °C humidified atmosphere with 5% CO2. Furthermore, serum-free culture was required until the cells were confluent at 90−95%. 24 h later the cells were treated with a tested compound (40 and 80 μM) for 24 h. The COL1A1 promotor activity was detected by the Bright-Glo luciferase assay system. Alternatively, to test the acute effects of compound on luciferase activity, 24 h later the cells were lysed and the lysate was treated with a tested compound (80 μM) for 2 h, then the luciferase was detected by the Bright-Glo luciferase assay system (Promega, Madison, WI, USA).
(A reporter such as luciferase makes a cellular process visible.)

Data set [5] has as its system COL1A1 protein. In words: Western blot of COL1A1 protein in LX-2 cells. The class given is cell-based. The conditions noted are these: Homo sapiens, 24 h, read-out: Inhibition rate of COL1A1 protein; for inhibition at 6 µM: with TGF-β1, 6 μM; for inhibition at 12 µM: with TGF-β1, 12 μM. As to the method: Then the anti-COL1A1 effects of 4n and 4p on protein level were evaluated by western blot assay.
LX-2 cells were cultured as described above. Cells were washed with phosphate-buffered saline (PBS) and were resuspended by radioimmunoprecipitation assay (RIPA) lysis buffer for 30 min in 4 °C; the supernatant was collected after centrifugation at 12000 g for 15 min at 4 °C. Subsequently, equal amounts of protein were quantified with Bradford assay, separated using SDS-PAGE and transferred onto polyvinylidene difluoride membrane. The membranes were blocked with 5% milk in PBST for 1 h, and probed with specific primary antibodies overnight at room temperature. The membrane was washed three times by PBST, and probed with horseradish peroxidase-conjugated secondary antibodies and GAPDH. The proteins were visualized by chemiluminescence reagents. Antibodies used in western blot analysis were obtained from Abcam (Cambridge, UK): anti-collagen 1 (ab34710), anti-TGF beta 1 antibody (ab179695), anti-alpha smooth muscle actin (ab32575) and Cell Signaling Technology (Danvers, MA, USA): GAPDH (D16H11) Rabbit mAb (5174).
In general terms: A western blot detects proteins with antibodies after separation by electrophoresis.

Data set [6] addresses T1, luciferase (Photinus pyralis, UniProt P08659, K549A/L550V/N119G/N50D/S548I).
T1 construct: expressed in transfected cells; host or cells: human hepatic stellate LX-2 cells transfected with pGL4.17-COL1A1P; lysate used
Nature of the data set: Acute effect on luciferase activity (cell lysate, 2 h). The class given is biochemical. To be noted: 80 μM, 2-h treatment. As to the method:
Then, their anti-COL1A1 potencies were verified by testing the half maximal inhibition concentration (IC50) values upon COL1A1 expression expression in LX-2 cells. […] Then, compounds 4i, 4n and 4p with the lower IC50 values were selected as the key compounds for further studies.
as §3

The test system of data set [7] is TGFB1 mRNA. Nature of the data set: RT-PCR of TGFB1 mRNA in LX-2 cells. The class given is cell-based, human. To be noted: TGF-β1 (2 ng/mL) stimulation, 24 h. How it is done:
In the absence or presence of TGF-β1 (2 ng/mL) treatment, LX-2 cells were treated with key compounds 4n and 4p at concentrations of 6 μM and 12 μM, or 4i at a concentration of 12 μM, respectively.
Since the stimulation of TGF-β1 provokes the expression of a series of fibrosis genes, for example COL1A1 and TGFB1 [24, 25], the effects of key compounds on TGF-β1 expression were evaluated by RT-PCR and western blot assays. As shown in Figure 2B and Supplementary Table S1, the expression of TGFB1 mRNA was maintained at a low level, and the addition of a key compound seemed to have little effect on its expression.
LX-2 cells were laid on 6-well plate and cultured in DMEM supplemented with 10% fetal bovine serum (FBS) in a 5% CO2 atmosphere at 37 °C. And serum-free culture was required until the cells reached 90−95% confluence. After 24 h, cells were incubated with […] concentrations of aloperine derivatives in the presence of 2 ng/mL of TGF-β1 for 24 h. Total RNA of the LX-2 cells was isolated using TRIzol reagent, purified using NucleoSpin RNA Clean-up. Reverse transcription was performed with Transcriptor first strand cDNA synthesis kit. Subsequently, the cDNA levels was determined by ABI 7500 Fast Real-Time PCR System using TaqMan probes of COL1A1, TGF-β1, α-SMA, and GAPDH (sequence not disclosed by ABI) and FastStart Universal Probe master mix (Roche, Indianapolis, IN, USA).

T1 sequence (P08659 whole entry N50D/N119G/S548I/K549A/L550V): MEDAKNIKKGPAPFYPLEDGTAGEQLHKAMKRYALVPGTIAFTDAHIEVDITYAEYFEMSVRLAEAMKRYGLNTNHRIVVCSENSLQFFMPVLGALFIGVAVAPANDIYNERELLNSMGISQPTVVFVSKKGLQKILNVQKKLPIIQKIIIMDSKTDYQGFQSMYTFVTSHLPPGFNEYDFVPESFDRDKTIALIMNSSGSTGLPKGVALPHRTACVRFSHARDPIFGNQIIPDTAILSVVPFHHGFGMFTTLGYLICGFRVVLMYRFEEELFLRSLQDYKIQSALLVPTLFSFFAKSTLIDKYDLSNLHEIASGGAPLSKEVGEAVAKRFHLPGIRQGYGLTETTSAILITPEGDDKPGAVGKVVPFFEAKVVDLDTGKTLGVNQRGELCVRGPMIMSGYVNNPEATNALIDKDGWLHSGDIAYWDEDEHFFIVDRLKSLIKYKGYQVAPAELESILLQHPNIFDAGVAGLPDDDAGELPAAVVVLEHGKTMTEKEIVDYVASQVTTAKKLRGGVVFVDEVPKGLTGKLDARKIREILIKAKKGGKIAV

With `O=C(CN1CCCC2=C[C@H]3C[C@H](CN4CCCC[C@H]34)[C@@H]21)N(c1ccccc1)c1ccc2ccccc2c1` [4n, 12N-(N’-(Naphthalen-2-yl)-N’-phenyl)carbamoylmethyl aloperine], in data set [1], the LD50 at 7 days was determined as 500 mg/kg. Moreover, in data set [2], the “median lethal dose (LD50)” value turned out to be 500 mg/kg. Further, in data set [3], half-maximal cytotoxicity (CC50 at 24 h) was put at 35.2 ± 4.1 µM. For the same molecule, in data set [4], the inhibition at 40 µM worked out at 99.9 ± 0.1%, the inhibition at 80 µM was 100% and the IC50 came to 13.3 ± 0.5 µM. Further, in data set [5], the inhibition at 6 µM stood at 31.8% and the inhibition at 12 µM was found to be 76.5%. Also, the “Acute effect on luciferase activity” value in data set [6] is given as “minimal inhibition”. The “Inhibitory rate of TGFB1 mRNA expression” value in data set [7] (6 μM) was 57.7%. In addition, the “Inhibitory rate of TGFB1 mRNA expression” value in data set [7] (12 μM) is recorded as 60.0%.
As to `O=C(CN1CCCC2=C[C@H]3C[C@H](CN4CCCC[C@H]34)[C@@H]21)N1c2ccccc2Oc2ccccc21` [4p, 12N-N′-Phenoxazinylcarbamoylmethyl aloperine], the LD50 at 7 days in data set [1] was 400 mg/kg. In addition, in data set [2], the “median lethal dose (LD50)” value was determined as 400 mg/kg. For the same molecule, the CC50 at 24 h in data set [3] came out at 43.7 ± 2.7 µM. In addition, in data set [4], the inhibition at 40 µM was found to be 72.2 ± 1.5%, the inhibition at 80 µM was determined as 99.1 ± 1% and the IC50 was determined as 16.5 ± 0.4 µM. In data set [5], the inhibition at 6 µM turned out to be 22.7% and the inhibition at 12 µM stood at 79.2%. The “Acute effect on luciferase activity” value in data set [6] is listed as “minimal inhibition”. Further, the “Inhibitory rate of TGFB1 mRNA expression” value in data set [7] (6 μM) was 60.8%. The “Inhibitory rate of TGFB1 mRNA expression” value in data set [7] (12 μM) is given as 63.8%.
